Series [1] can be described thus: UV-Vis absorption spectroscopy. Particulars: for Absorption λmax / ε (at absorption λmax): acetonitrile/2% DMSO. The series is classed as physicochemical. How it is done: UV-Vis absorption spectroscopy is performed on a Cary 1E spectrophotometer. […]
[…] […] From each stock solution, 5 dilutions with concentrations of 2.5 μm, 10 μM, 17 μM, 25 μm and 35 μM are made. UV-spectra of each dilution are recorded from 200 to 400 nm, using a quarz cuvette with a pathlength of 1 cm. […] A linear fit is carried out for each series of measurements. The extinction coefficient ε at 337 nm is given by the slope of the linear regression.

Series [2] in a line: Steady-state fluorescence spectroscopy (excitation and emission spectra). The series is classed as physicochemical. Particulars: for Emission range in parenthesis / Emission λmax / Excitation range in parenthesis / Excitation λmax: acetonitrile/2% DMSO. How it is done:
Steady-state fluorescence measurements are performed on a SLM 8000C spectro-fluorometer equipped with JD490 photomultipliers and a 450 W Xenon Arclamp (SLM Instruments, Urbana, Ill.).
[…] Spectral bandwidths are set to 1 and 4 nm for excitation and emission, respectively. Spectra are recorded in single photon counting mode. Changes in lamp intensity are corrected with a quantum counter in the reference channel, measured in slow mode. Gain is set to x 100 with a high voltage (HV) of 640 V. Integration time is 2 seconds. For excitation spectra measurements, the emission wavelength is set to 397 nm and the sample is excited from 200 to 400 nm. For recording emission spectra, the sample is excited at 342 nm and the emission is recorded from 350 to 540 nm. The data are averaged over two scans.

A short description of series [3]: Quantum yield determination with chininsulfate as standard. The series is classed as physicochemical. The following applies: 25 μM in THF. As for the experimental part: The quantum yield of 4e is determined using chininsulfate as a standard [Melhuish, 1961].
The point of intersection between the UV spectra of 4e and chininsulfate (CS) is determined by measurements of a solution of the two substances on a Cary 1E spectrophotometer. Concentrations were 25 μM in THF for 4e and 50 mM in 1N H2SO4 for CS. Spectra are recorded from 260 nm to 380 nm using a quartz cuvette with an optical pathlength of 10 mm, and blank corrected by subtracting the solvent absorption. The point of intersection of the two resulting UV spectra is determined to be at 348.3 nm, corresponding to 352.8 nm on the SLM-8000 C fluorometer due to monochromator shifts. The fluorescence emission spectra of 4e and CS are recorded using the same solutions as for the UV-measurements in single photon counting mode. Lamp intensity changes are corrected with a quantum counter in the reference channel, measured in slow mode. Gain is set at x 100, high voltage applied was 830 V. Integration time was 0.5 seconds.
Spectral bandwidths are set at 1 nm for excitation, 2 nm and 4 nm for emission.
For the recording of the emission spectra, excitation is set to 352.8 and emission is monitored from 360 to 550 nm for IAE and 360 to 650 nm for CS.

A short description of series [4]: Calculation of R0 (Förster distance) between 4e and NATA. The following applies: 4e acceptor, NATA donor, THF. The series is classed as physicochemical. As for the experimental part:
The emission spectrum of NATA is measured at a concentration of 15 μM in THF, using a 750 μl quartz cuvette with an optical pathlength of 10 mm. Measuring mode is single photon counting. Changes in lamp intensity are corrected using a quantum counter in the reference channel. The gain is set at x 100, the high voltage applied was 640 V and the integration time is 2 seconds. The fluorescence emission is corrected for photometric accuracy of the system by multiplication with correction factors obtained by standard lamp calibration. Slit widths are set at 1 nm and 4 nm for excitation and emission, respectively. […] R0 is calculated using the formula R0=(9.97×10^3)(Jκ^2η^-4 θNATA)^1/6 Å where κ^2 is an orientation factor of the relative orientation in space of the transition dipoles of the donor and acceptor chromophores. […] J is the spectral overlap integral which can be approximated from […](λ)λ^4Δλ (2) where FNATA is the corrected fluorescence emission of the donor, the sum normalized to unity, ε4e is the extinction coefficient of the acceptor at wavelength λ, and DS is the incremental detection range.

The nature of series [5]: Picosecond time-resolved fluorescence spectroscopy (fluorescence lifetime). The series is classed as physicochemical. Particulars: 25 μM in THF, emission 400 nm. As for the experimental part:
Picosecond time-resolved fluorescence measurements are recorded according to the single photon counting technique [Lakowicz, 1983 p 52-93, 112-153, 156-185]. An Ar^+-pumped Ti:Sapphire laser (model MIRA 900, Coherent, Santa Clara, USA) provided under mode-locked conditions ultrashort pulses (FWHM=150 fs) with a frequency of 75 MHz. To reduce the repetition rate to 4.7 MHz, a pulse picker (model 9200, Coherent, Santa Clara, USA) is inserted into the beam. […] Fluorescence photons are collected in a Spex 1681 single grating monochromator (Spex, Edison, USA) and detected with the Hamamatsu R3809U microchannel plate (Hamamatsu, Shimokanzo, Japan). […] The voltage values which correspond to the time passed between excitation and emission of a fluorescence photon in a single experiment are stored in the Spectrum Master 921 (Ortec, Oak Ridge, USA) which is connected to the multichannel emulation program Maestro (Ortec, Oak Ridge, USA). […]
where A represents the background noise of the experiment, bi represent the pre-exponential terms of the according fluorescence lifetimes τi, and δt is an optional temporal shift term to compensate for shifts of the instrument response. […]
The time resolved decay of 4e is determined at a concentration of 25 μM in THF. Excitation is from 350 nm 380 nm, fluorescence emission is detected at 400 nm with slit widths set to 0.5 nm. […]

The target of series [6] is T1, avidin (Gallus gallus, UniProt P02701).
T1 construct: purchased Molecular Probes (Eugene, Oreg.) A-2767
T1 sequence (P02701 25-152): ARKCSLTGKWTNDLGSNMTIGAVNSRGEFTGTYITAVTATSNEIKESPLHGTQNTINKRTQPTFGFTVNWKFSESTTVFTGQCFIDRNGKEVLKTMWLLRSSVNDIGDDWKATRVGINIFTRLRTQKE
Nature of the series: Fluorescence anisotropy as signal for binding to avidin. As for the experimental part: (§1) For solubility reasons, 4e is spectroscopically characterized in THF. All complexation reactions and fluorescence resonance energy transfer measurements are performed in PBS/5% DMSO at 25° C., unless indicated otherwise.
(§2) Fluorescence anisotropy is calculated according to [Lakowicz, 1983].
(§3) Spectral bandwidths are set to 4 and 8 nm for excitation and emission, respectively, with 5 seconds integration time. For calculation of fluorescence anisotropy ten data points are averaged.
(§4) This value is indicative for a small monomeric molecule rotating free in solution. […] When 1 μM of the BODIPY-FL labelled avidin was used as substrate the r-value was 0.100. This reduced change in anisotropy probably reflects the lower affinity of the BODIPY-FL labelled avidin as compared to the unlabelled material.

In series [7] the target is T2, BODIPY-FL labelled avidin (Gallus gallus, UniProt P02701).
T2 construct: BODIPY FL (chemical fluorescent label, about 3.3 per avidin); purchased Molecular Probes (Eugene, Oreg.) A-2641
T2 sequence (P02701 25-152): as above
Nature of the series: Fluorescence anisotropy with BODIPY-FL labelled avidin. Particulars: 50 nM conjugate, 1 μM BODIPY-FL labelled avidin. The series is classed as binding. How it is done: as §1, §2, §3, §4
(In general: Polarisation of emitted light reports the rotation of a fluorescent probe.)

Series [8] concerns the target T1, avidin. Nature of the series: FRET / quenching with unlabelled avidin (tryptophan donor, AIDA acceptor). The series is classed as binding. How it is done:
as §1
(§5) Spectral bandwidths are set to 8 and 16 nm for excitation and emission, respectively. Measurements are performed at 25° C. in a 750 μL quartz cuvette (10 mm optical pathlength) without stirring after initial mixing. A concentration of 50 nM of 9 or 11 is used for complexation with 1 μM of (fluorescent) avidin. […] All titrations are performed in magic angle setting, with the emission wavelength set to […] in experiments where the indazole is the acceptor, and with an excitation spectrum recorded from 250 nm to 360 nm. In experiments where indazole is used as donor and Lucifer Yellow or BODIPY FL is the acceptor, the excitation wavelength is set to 338 nm or 325 nm. The fluorescence emission is collected between 360 nm and 700 nm. The spectra are corrected for Raman scattering from the PBS solution, for dilution, and for inner filter effects due to protein additions, The signal is adjusted for lamp intensity changes by ratio mode detection with a Rhodamine B quantum counter in the reference channel. A WG 360 emission cutoff filter is used for straylight reduction. Data are collected in 2 nm increments with 1 second integration time.
An emission wavelength at 480 nm was chosen because the tryptophan fluorescence of avidin had almost reached the baseline level at this emission energy, resulting in only minor avidin fluorescence contribution between 250 and 370 nm. […] This quenching effect can be attributed to all radiative and non-radiative processes occurring to 11 in the vicinity of the tryptophans in the binding cleft. Corresponding to the ratio of the negative and positive areas under the fluorescence difference curve (black), 62% of this total quenching effect is fluorescence resonance energy transfer. From 250 to 305 nm the enhancement of the tryptophan and tyrosine fluorescence intensity is 72% based on the sum of 11 and avidin.

The next series deals with T3, avidin-BODIPY-FL (Gallus gallus, UniProt P02701).
T3 construct: BODIPY FL (chemical fluorescent label, about 3.3 per avidin); purchased Molecular Probes (Eugene, Oreg.) A-2641
T3 sequence (P02701 25-152): as above
Nature of the series: FRET / quenching with avidin-BODIPY-FL (AIDA donor, BODIPY-FL acceptor). The following applies: standard definition, stated as not valid here. The series is classed as binding. How it is done: as §1, §5
In these experiments 11 was used as donor and BODIPY-FL as acceptor. At an excitation wavelength of 338 nm the emission of 11 between 360 nm and 516 nm is strongly quenched by approximately 80% in the complexed form. The standard definition for energy transfer efficiency, E=1−Fda/Fd, would result in E≅0.8. […] The approximately 80% reduction in signal intensity of 11 can be caused either by FRET or from local quenching of the fluorescence of 11 mainly by ground state interactions. […] Due to the broad fluorescence emission of 11 in water the detection wavelength can be shifted up to 500 nm which is at lower energy than most background fluorescence signals from small chemical compounds.

Data on two molecules can be found in patent US20010005752A1, “Fluorescent dyes (AIDA) for solid phase and solution phase screening” (priority 1998, published 2001).

`C=CCOC(=O)c1ccc(-c2nn(-c3ccc(C(=O)O)cc3)c3ccccc23)cc1` [4e, 4-[3-(4-allyloxycarbonylphenyl)-1H-indazol-1-yl]-benzoic acid] had an absorption maximum in series [1] (THF) of 342 nm. The “absorption coefficient ε at 337 nm” value in [1] (THF, 337 nm) is 29926 M⁻¹ cm⁻¹. In series [1], the “Absorption λmax” value was 335 nm and the “ε (at absorption λmax)” value worked out at 34134 M⁻¹ cm⁻¹. In [2], the “photophysical and photochemical stability” value was “photophysically and photochemically stable”; the “Emission range in parenthesis” value is 360-480 nm; the “Emission λmax” value turned out to be 398 nm; the “Excitation range in parenthesis” value is 310-360 nm. In series [2], the “Excitation λmax” value was determined as 337 nm. In addition, the “maximal emission intensity (wavelength)” value in series [2] (1 μM in THF, excitation at 342 nm) is 403 nm. The Stoke shift entry in series [2] (THF) is “about 60 nm”. Moreover, the quantum yield in [3] was found to be 0.591. Moreover, the “R0 (Förster distance) of the dye pair with NATA” value in series [4] is reported as 25.2 - 26.3 Å. In series [5], the “fluorescence lifetime (mono-exponential decay)” value stood at 1.055±0.117 nsec and the “relative amplitude of lifetime component” value was 99.73%.
`C=CCOC(=O)c1ccc(-c2nn(-c3ccc(C(=O)N[C@@H](CCCCNC(=O)CCCCC4SCC5NC(=O)NC54)C(=O)O)cc3)c3ccccc23)cc1` (some centres unmarked) [compound 11]: in [1], the “Absorption λmax” value was found to be 334 nm and the “ε (at absorption λmax)” value worked out at 34349 M⁻¹ cm⁻¹. Besides, the emission maximum in series [2] (50 nM, PBS/5% DMSO, excitation 338 nm) is reported as 438 nm. Also, the “emission intensity at 500 nm” value in [2] (PBS buffer, 500 nm) is given as “about 50%”. In series [2], the “Emission range in parenthesis” value is on record as 370-480 nm, the “Emission λmax” value is given as 397 nm, the “Excitation range in parenthesis” value was 310-360 nm and the “Excitation λmax” value was determined as 336 nm. On avidin [6] (50 nM conjugate, 1 μM avidin), the “change of anisotropy on binding to avidin” value is “+444%” and the “fluorescence anisotropy bound to avidin” value was 0.151. Also, the “basic fluorescence anisotropy (free conjugate)” value at avidin [6] (50 nM, excitation 338 nm, emission 438 nm, no avidin) was 0.034. Moreover, the “fluorescence anisotropy (r-value) with BODIPY-FL labelled avidin” value in series [7] amounted to 0.100. On avidin [8] (50 nM conjugate, 1 μM unlabelled avidin, emission 480 nm), the “quenching of conjugate fluorescence by complexation in the avidin binding site” value is “about 25.5%”. Moreover, on avidin [8] (250 to 305 nm, based on the sum of 11 and avidin), the “enhancement of tryptophan and tyrosine fluorescence intensity” value is 72%. The “tryptophan to conjugate energy transfer relative to free avidin plus 11” value on avidin [8] (detected at 480 nm) is 70%. Further, the “part of total quenching effect that is fluorescence resonance energy transfer” value at avidin [8] (ratio of negative and positive areas under difference curve) came out at 62%. Also, the “energy transfer efficiency E=1−Fda/Fd” value on avidin-BODIPY-FL is about 0.8.
